Several values for one entry are separate records, joined by “and”; a condition that tells them apart may be missing. Equal values may be shown once.
Legend:
C. difficile strain 4013 = test: Hamster model of C. difficile associated cecitis (clindamycin induced); assay type: in vivo; settings: three times daily at 10 mg/kg/day, 5-day dosing period, groups of 6
Protocol: The in vivo efficacy of the compounds of the invention in the treatment of C. difficile infections was evaluated in the standard animal model for CDAD, clindamycin induced cecitis in the hamster.
Groups of 6 animals were dosed with approximately 10^7 cells of C. difficile strain 4013 and 24 hours later with a subcutaneous dose of 10 mg/kg clindamycin phosphate. After a further 24 hours, the groups were then treated either with vehicle, vancomycin or with the compound of Example 1 three times daily at 10 mg/kg/day.

[1] = system: Clostridium difficile strains; test: Susceptibility testing (MIC) by two-fold serial agar dilution, Wilkins-Chalgren Anaerobe agar, anaerobic; assay type: cell-based
Protocol: Susceptibility testing for Clostridium difficile strains was performed by two-fold serial antibiotic dilutions in Wilkins-Chalgren Anaerobe agar under anaerobic conditions. Vancomycin was included as a comparator drug. C. difficile cultures were inoculated onto pre-reduced Braziers (C.C.E.Y.) agar plates and grown at 37° C. for 48 hours under anaerobic conditions. Two to three colonies of the 48 hours cultures were inoculated into 5 ml of pre-reduced Schaedlers Broth and grown at 37° C. for 24 hours under anaerobic conditions. This culture was diluted with pre-reduced 0.9% NaCl to achieve the turbidity of the 0.5 McFarland standard and applied to the drug containing plates at a final inoculum of 10^5 cfu/spot. Drug-free growth control plates were included. The plates were incubated in the anaerobic chamber at 37° C. for 48 hours and examined for growth.

[2] = Stability to enzymatic digestion in simulated intestinal fluid (SIF); assay type: in vitro ADME; settings: 37° C., HPLC quantification (FIG. 1)
Protocol: Nisin and the compound of Example 1 were tested for their susceptibility towards enzymatic digestion in the intestine using a simulated intestinal fluid (SIF). The SIF was based on the standard USP solutions for simulated intestinal fluids and its activity was confirmed against Bovine Serum Albumin (Hilger et al, Clin. Exp. Immunol. 2001, 123, 387-94). The compounds were incubated in SIF at 37° C. and their concentrations quantified by analytical HPLC (UV detection at 210 nm using the conditions outline in Table 1).

[3] = 7-day toxicity experiment in a rat model; assay type: in vivo
Protocol: The compound of Example 1 was tested in a 7-day toxicity experiment in a rat model. One study used 50 mg/kg/day of material administered intravenously for 7 days. The other study used 200 mg/kg/day of material administered orally for 7 days.

[4] = Tolerability in the Syrian hamster; assay type: in vivo; settings: 50 mg/kg/day orally
[5] = 50 mg/kg/day intravenously for 7 days
[6] = 200 mg/kg/day orally for 7 days

Which survival (C. difficile strain 4013) does the source give for `CN[C@H](CC(C)C)C(=O)N[C@H]1C(=O)N[C@@H](CC(N)=O)C(=O)N[C@H]2C(=O)N[C@H]3C(=O)N[C@H](C(=O)N[C@H](C(=O)O)c4cc(O)cc(O)c4-c4cc3ccc4O)[C@H](O)c3ccc(c(Cl)c3)Oc3cc2cc(c3O[C@@H]2O[C@H](CO)[C@@H](O)[C@H](O)[C@H]2O[C@H]2C[C@](C)(N)[C@H](O)[C@H](C)O2)Oc2ccc(cc2Cl)[C@H]1O` [vancomycin, reference compound] here?
Its survival is “survived for the duration of the entire 5-day dosing period”.

Which MIC ([1]; C. diff strain 027SM) does the source give for “Deoxyactagardine B (3-amino-1-propylamide monocarboxamide) [Example 5]” here?
Its MIC is 2, 2 μg/ml.

And the MIC ([1]; C. diff strain 630, listed as Eg 5)?
The MIC was 1, 1 μg/ml and 2, 2 μg/ml.

And the MIC ([1]; C. diff strain 19126, listed as Eg 5)?
Its MIC is 2, 2 μg/ml and 1, 1 μg/ml.

And the MIC ([1]; C. diff strain 37779, listed as Eg 5)?
The MIC was 1, 1 μg/ml and 2, 2 μg/ml.

What about the MIC ([1]; C. diff strain B32) of the same compound?
The MIC was 2, 2 μg/ml.

What about the MIC ([1]; C. diff strain E16, listed as Eg 5) of the same compound?
The MIC was 1 µg/mL and 2 µg/mL.

What about the MIC ([1]; C. diff strain E101) of the same compound?
The MIC was 2, 2 μg/ml.

What about the MIC ([1]; C. diff strain P24) of the same compound?
The MIC was 2, 2 μg/ml.

And the MIC ([1]; C. diff strain P62)?
Its MIC is 2, 2 μg/ml.

With “Deoxyactagardine B (12-amino-1-dodecylamide monocarboxamide) [Example 8]” as the compound, how does the MIC ([1]; C. diff strain 027Can) read?
Its MIC is 1, 1 μg/ml.

What about the MIC ([1]; C. diff strain 027SM) of the same compound?
Its MIC is 2, 2 μg/ml.

What about the MIC ([1]; C. diff strain 630, listed as Eg8) of the same compound?
The MIC was 0.5, 0.5 μg/ml and 1, 1 μg/ml.

And the MIC ([1]; C. diff strain 19126, listed as Eg8)?
Its MIC is 1, 1 μg/ml and 2, 2 μg/ml.

And the MIC ([1]; C. diff strain 37779, listed as Eg8)?
The MIC was 1, 1 μg/ml and 1 μg/ml and 2 μg/ml.

And the MIC ([1]; C. diff strain B32, listed as Eg8)?
Its MIC is 2 µg/mL and 1 µg/mL.

And the MIC ([1]; C. diff strain E16)?
The MIC was 2, 2 μg/ml.

What about the MIC ([1]; C. diff strain E101) of the same compound?
The MIC was 2, 2 μg/ml.

And the MIC ([1]; C. diff strain P24, listed as Eg8)?
Its MIC is 2 µg/mL and 1 µg/mL.

And the MIC ([1]; C. diff strain P62)?
Its MIC is 2, 2 μg/ml.

Which MIC ([1]; C. diff strain 027Can, listed as Eg 1) does the source give for `CCC(C)[C@@H]1NC(=O)[C@@H]2NC(=O)[C@H](CC(C)C)NC(=O)[C@H](NC(=O)C3CSC[C@H](N)C(=O)N[C@@H](CO)C(=O)NCC(=O)N[C@@H](Cc4c[nH]c5ccccc45)C(=O)N[C@@H](C(C)C)C(=O)N3)[C@H](C)SC[C@H](NC(=O)[C@H](CCC(=O)O)NC1=O)C(=O)NCC(=O)N[C@@H]1C(=O)N[C@@H](CC(C)C)C(=O)N[C@@H](C(C)C)C(=O)N[C@@H](CS[C@H]2C)C(=O)N[C@@H](C)C(=O)N[C@H](C(=O)NCCCCCCCN)CS[C@H]1C` (some centres unmarked) [Example 1, Deoxyactagardine B (7-amino-1-heptylamide monocarboxamide)] here?
The MIC was 0.5, 0.5 μg/ml and 1, 1 μg/ml and 1 μg/ml and 0.5 μg/ml.

And the MIC ([1]; C. diff strain 027SM)?
The MIC was 1, 1 μg/ml.

What about the MIC ([1]; C. diff strain 630, listed as Eg 1) of the same compound?
Its MIC is 0.5, 0.5 μg/ml and 0.5 μg/ml and 1 μg/ml and 1, 1 μg/ml.

And the MIC ([1]; C. diff strain 19126, listed as Eg 1)?
Its MIC is 1, 1 μg/ml and 0.5 μg/ml and 1 μg/ml.

What about the MIC ([1]; C. diff strain 37779, listed as Eg 1) of the same compound?
Its MIC is 1, 1 μg/ml and 1 μg/ml and 0.5 μg/ml.

What about the MIC ([1]; C. diff strain B32) of the same compound?
Its MIC is 1, 1 μg/ml.

What about the MIC ([1]; C. diff strain E16, listed as Eg 1) of the same compound?
Its MIC is 1 µg/mL and 2 µg/mL.

What about the MIC ([1]; C. diff strain E101) of the same compound?
The MIC was 1, 1 μg/ml.

What about the MIC ([1]; C. diff strain P24) of the same compound?
The MIC was 1, 1 μg/ml.

And the MIC ([1]; C. diff strain P62, listed as Eg 1)?
Its MIC is 2 µg/mL and 1 µg/mL.

And the “activity (MIC)” value ([1]; against many common strains of C. difficile)?
Its value is at most 1 µg/mL.

What about the “stability in SIF” value [2] of the same compound?
The value was “essentially stable”.

What about the survival (C. difficile strain 4013) of the same compound?
The survival was “survived for the duration of the entire 5-day dosing period”.

What about the necropsy [3, 5] of the same compound?
Its necropsy is “no organ damage”.

What about the toxicological effects [3, 5] of the same compound?
The toxicological effects was “No significant toxicological effects”.

And the necropsy [3, 6]?
Its necropsy is “no organ damage”.

And the toxicological effects [3, 6]?
Its toxicological effects is “No significant toxicological effects”.

And the tolerability [4]?
Its tolerability is “tolerated without obvious signs of toxicity”.

— patent publication US8741945B2, “Compounds” (Novacta Biosystems Limited, priority 2009, dated 2014)
